Measurements published in US8383607B2, “Perifosine and capecitabine as a combined treatment for cancer” (AEterna Zentaris GmbH, priority 2011, dated 2013).
Read-outs that look alike come from different tables or passages of the source.

Legend:
[1] = cited from earlier work; for time of peak blood level after administration: after capecitabine administration
[2] = system: refractory advanced colorectal cancer; test: Phase I clinical study: safety of 50 mg perifosine daily with 1000 mg/m^2 capecitabine twice per day; conditions: first dose perifosine vs perifosine for eleven days
Experimental: A Phase I clinical study was performed for evaluating the safety of 50 mg perifosine daily in combination with 1000 mg/m^2 capecitabine twice per day in patients with refractory advanced colorectal cancer. During a 21 day cycle, perifosine was administered every day, whereas capecitabine was administered orally on days 1-14 of the cycle.
The study was performed on patients having 3rd line or higher metastatic colorectal cancer, with no prior exposure to perifosine, and who had received, or were not candidates for, regimens containing 5-fluorouracil, oxaliplatin, irinotecan, bevacizumab, and cetuximab or panitumumab. The patients had at least one measurable lesion, as well as adequate bone marrow, liver and renal function.
Toxicity was graded according to the NCI CTCAE version 3.0, and dose limiting toxicity was defined as any of the following: […]
a) Grade 3 non-hematological toxicity except alopecia, which is not reversible Grade 2 or less within 96 hours; or
Physical examination (including vital signs, weight and ECOG performance score) was performed prior to initiation of the treatment, and on day 1 (±3 days) of every cycle thereafter. Adverse event evaluations were monitored and reported promptly.

[3] = system: metastatic colorectal cancer; test: Phase II randomized placebo-controlled expanded study: perifosine with capecitabine vs capecitabine alone; type: in vivo, human
Experimental: As outlined above, the randomized placebo-controlled study was performed in order to evaluate the effects of perifosine in combination with various cytotoxic agents (i.e., gemcitabine, paclitaxel, docetaxel, doxorubicin, capecitabine, pemetrexed, irinotecan and pegylated liposomal doxorubicin) and to determine if co-administering perifosine and each of these cytotoxic agents results in synergy, and if such synergy overcomes resistance to chemotherapy in cancer cells.
The study was performed on patients having breast cancer, non-small cell lung cancer, colorectal cancer, prostate cancer, ovarian cancer, head and neck cancer or soft tissue sarcoma, who had received at least one prior chemotherapy regimen. The prior regimen must have been different than the single agent administered in this study. Each patient received a single agent chemotherapy regimen which was judged by a physician as likely to be as beneficial to the patient as any other available therapy.
Patients received either 50 mg perifosine or placebo daily in combination with single-agent chemotherapy.
Capecitabine: 825 mg/m^2 twice per day (i.e., 1650 mg/m^2 per day) on days 1-14 every 3 weeks, administered orally (used to treat breast, colorectal, head and neck, prostate, and ovarian cancers);
The time to progression (TTP) was a primary endpoint for the various treatment groups. Overall survival (OS) rates and overall response rates (ORR) of the patients and the proportion of progression-free patients were secondary endpoints. In addition, the safety of the combined treatments was also evaluated.
Progression and response (complete response or partial response) were determined according to RECIST 1.0 criteria.
The Kaplan-Meier method was used to calculate times to progression and overall survival. Median values of the TTP and OS were calculated, as well as the confidence intervals (CI) of the TTP and OS at a 95% confidence level. P-values were calculated for the differences between different treatments.
Safety of treatments was assessed by monitoring adverse events, which were graded according to the NCI CTCAE version 3.0.

[4] = system: Advancing colorectal cancer (ACRC); Metastatic colorectal cancer (MCRC); conditions: cited from earlier work
[5] = system: breast cancer, non-small cell lung cancer, colorectal cancer, prostate cancer, ovarian cancer, head and neck cancer or soft tissue sarcoma; test: Phase II portion: perifosine or placebo with single-agent chemotherapy regimens; type: in vivo, human; conditions: 50 mg perifosine or placebo daily with single-agent chemotherapy
Experimental: The prior regimen must have been different than the single agent administered in this study. Each patient received a single agent chemotherapy regimen which was judged by a physician as likely to be as beneficial to the patient as any other available therapy. […] The single-agent chemotherapy regimens were as follows: Paclitaxel: 175 mg/m^2 every 3 weeks or 80 mg/m^2 on days 1, 8 and 15 every 4 weeks, by intravenous infusion over 1 to 3 hours (used to treat breast, prostate and lung cancers); Docetaxel: 75 mg/m^2 every 3 weeks or 35 mg/m^2 on days 1, 8 and 15 every 4 weeks, by intravenous infusion over 1 hour (used to treat head and neck, lung, ovarian and prostate cancers); Gemcitabine: 1000 mg/m^2 on days 1 and 8 every 3 weeks, by infusion over 30 minutes (used to treat sarcoma and lung, ovarian, breast and head and neck cancers); Doxorubicin: 60 mg/m^2 every 3 weeks, by infusion over 30 minutes (used to treat sarcoma and prostate, ovarian, and breast cancers); Pegylated liposomal doxorubicin: 40 mg/m^2 every 4 weeks, by infusion over 30 minutes (used to treat sarcoma and ovarian and breast cancers); Capecitabine: 825 mg/m^2 twice per day (i.e., 1650 mg/m^2 per day) on days 1-14 every 3 weeks, administered orally (used to treat breast, colorectal, head and neck, prostate, and ovarian cancers); Pemetrexed: 500 mg/m^2 every 3 weeks, by intravenous infusion over 10 minutes (used to treat lung and colorectal cancers); and Irinotecan: 100 mg/m^2 on days 1, 8 and 15 every 4 weeks, by intravenous infusion over 90 minutes (used to treat sarcoma and colorectal and lung cancers). The time to progression (TTP) was a primary endpoint for the various treatment groups. Overall survival (OS) rates and overall response rates (ORR) of the patients and the proportion of progression-free patients were secondary endpoints. In addition, the safety of the combined treatments was also evaluated. […] The Kaplan-Meier method was used to calculate times to progression and overall survival. Median values of the TTP and OS were calculated, as well as the confidence intervals (CI) of the TTP and OS at a 95% confidence level. P-values were calculated for the differences between different treatments.

[6] = 5-FU-refractory metastatic colorectal cancer patients, listed as capecitabine alone
[7] = 5-FU-refractory metastatic colorectal cancer patients, listed as placebo+capecitabine
[8] = after 12 weeks, 5-FU refractory evaluable patients (14 combination, 11 capecitabine alone)
[9] = after 12 weeks, evaluable metastatic colorectal cancer patients (20 combination, 15 capecitabine alone)
[10] = all metastatic colorectal cancer patients, 50 mg perifosine or placebo daily + capecitabine 1650 mg/m^2 per day days 1-14 every 21 days
[11] = 2x daily 1250 mg/m2 (total 2500 mg/m2), MCRC, Asia-Pac J Clin Oncol. 2011, 82-87
[12] = 2x daily 1000-1250 mg/m2, ACRC, Acta Oncologica, 2005, 44: 236-239
[13] = 7 patients 2x daily 1250 mg/m2, after toxicity dose diluted to 1000 mg/m2, ACRC, Anticancer Res. 26: 1669-1672 (2006)

O=c1[nH]cc(F)c(=O)[nH]1 [5-fluorouracil]
time of peak blood level after administration [1]: 2 h

CCCCCOC(=O)Nc1nc(=O)n([C@@H]2O[C@H](C)[C@@H](O)[C@H]2O)cc1F [capecitabine]
time of peak blood level after administration [1]: about 1.5 hours
effect of food on capecitabine absorption ([1]; in vivo): reduces both the rate and extent
elimination half-life ([1]; in vivo): about ¾
PK parameters for capecitabine or its metabolites, Cycle 1 Day 1 vs Cycle 1 Day 11 [2]: no statistically significant differences
Median OS ([3]; 5-FU refractory): 6.6 mo. for 5-FU
Median TTP ([3]; 5-FU refractory): 10 weeks for 5-FU
median overall survival (OS) [3, 6]: 6.8 months
median time to progression (TTP) [3, 6]: 10 weeks
median overall survival (OS) [3, 7]: 6.6 months
median time to progression (TTP) [3, 7]: 11 weeks
Grade 3 and 4 adverse events: anemia ([3]; NCI CTCAE version 3.0): 0%
Grade 3 and 4 adverse events: hand/foot syndrome ([3]; NCI CTCAE version 3.0): 0%
patients who achieved stable disease (progression-free for 3 months or greater) [3, 8]: 3
patients with partial response [3, 8]: none
proportion of patients who achieved stable disease [3, 8]: 27%
patients who achieved stable disease (progression-free for 3 months or greater) [3, 9]: 6
patients with partial response [3, 9]: 1
proportion of patients who achieved stable disease [3, 9]: 40%
patients with complete response ([3]; after 12 weeks, evaluable metastatic colorectal cancer patients (20 combination, 15 capecitabine alone), RECIST 1.0): none
median overall survival (OS) [3, 10]: 10.9 months
median time to progression (TTP) [3, 10]: 11 weeks
Median OS ([3]; all patients): refractory; 10.9 mo.
Median TTP ([3]; all patients): refractory; 11 weeks
patients who discontinued treatment due to an adverse event ([3]; in vivo): 2
Median OS [4, 11]: 5.3 months
Median TTP [4, 11]: 2.3 months
Median OS [4, 12]: 6.1 mos.
Median TTP [4, 12]: 2.8 mos.
Median OS [4, 13]: 5.2 mos.
Median TTP [4, 13]: 4 mos.

CC(=O)O[C@@]12CO[C@@H]1C[C@H](O)[C@@]1(C)C(=O)[C@H](O)C3=C(C)[C@@H](OC(=O)[C@H](O)[C@@H](NC(=O)OC(C)(C)C)c4ccccc4)C[C@@](O)([C@@H](OC(=O)c4ccccc4)[C@H]21)C3(C)C [docetaxel]
beneficial effect of perifosine (improvement in combination with perifosine) in subjects receiving the chemotherapeutic agent [5]: not to occur

COc1cccc2c1C(=O)c1c(O)c3c(c(O)c1C2=O)C[C@@](O)(C(=O)CO)C[C@@H]3O[C@H]1C[C@H](N)[C@H](O)[C@H](C)O1 [doxorubicin]
beneficial effect of perifosine (improvement in combination with perifosine) in subjects receiving the chemotherapeutic agent [5]: not to occur

Nc1ccn([C@@H]2O[C@H](CO)[C@@H](O)C2(F)F)c(=O)n1 [gemcitabine]
beneficial effect of perifosine (improvement in combination with perifosine) in subjects receiving the chemotherapeutic agent [5]: not to occur

CCc1c2c(nc3ccc(OC(=O)N4CCC(N5CCCCC5)CC4)cc13)-c1cc3c(c(=O)n1C2)COC(=O)[C@]3(O)CC [irinotecan]
beneficial effect of perifosine (improvement in combination with perifosine) in subjects receiving the chemotherapeutic agent [5]: not to occur

CC(=O)O[C@H]1C(=O)[C@@]2(C)[C@H]([C@H](OC(=O)c3ccccc3)[C@]3(O)C[C@H](OC(=O)[C@H](O)[C@@H](NC(=O)c4ccccc4)c4ccccc4)C(C)=C1C3(C)C)[C@]1(OC(C)=O)CO[C@@H]1C[C@@H]2O [paclitaxel]
beneficial effect of perifosine (improvement in combination with perifosine) in subjects receiving the chemotherapeutic agent [5]: not to occur

Nc1nc2[nH]cc(CCc3ccc(C(=O)N[C@@H](CCC(=O)O)C(=O)O)cc3)c2c(=O)[nH]1 [pemetrexed]
beneficial effect of perifosine (improvement in combination with perifosine) in subjects receiving the chemotherapeutic agent [5]: not to occur
